From patent US20160032005A1, “METHODS AND PHARMACEUTICALS COMPOSITIONS FOR TREATING BREAST CANCERS” (INSERM (Institut National de la Sante et de la Recherche …, priority 2014, published 2016) come the findings set out here.

One assay concerns p62. Briefly: p62 immunolocalization and protein level under autophagy modulators. Format: cell-based. The note with it: breast cancer and Hela cells. An excerpt: (§1) We next addressed the potential colocalization of Vangl2 and p62 in SUM149 cells by immunofluorescence and confocal analysis. In these cells, Vangl2 and p62 have a punctate cytoplasmic pattern and colocalization between the two proteins was seen puncta in the perinuclear region. Specificity of the Vangl2 signal is attested by lack of staining in cells treated with shVangl2. p62 is present in autophagosomes where it accumulates ubiquitinylated proteins bound to its UBA domain for autophagic degradation. Autophagy is active when the fusion between autophagosomes and lysosomes occur leading to the formation of autophagolysosomes endowed with degradative properties. The fusion process, and therefore autophagy, can be inhibited by Bafilomycin A1, an inhibitor of the vacuolar ATPase that blocks the fusion process by blocking the membrane-bound lysosomal vacuolar ATPase (V-ATPase) to prevent the lysosomal lumen acidification responsible for cathepsin activation. Alternatively, autophagy can be induced by rapamycin, an inhibitor of mTOR [38]. […] Decrease of p62 protein level can also be monitored by western blot. Vangl2 protein levels remained unmodified by rapamycin treatment while another prominent feature of autophagy, i.e. degradation of p62 was readily seen. […]

A further assay concerns Vangl2. In words: Vangl2 protein level (western blot) and cellular distribution under autophagy modulators. Type of assay: cell-based.
Text: as §1
On the technique in general: A western blot detects proteins with antibodies after separation by electrophoresis.

In assay [1] the target is T1, Vangl2-p62 interaction (Homo sapiens, UniProt Q9ULK5).
T1 construct: endogenous in cells; host or cells: SUM149 cells / cell extracts
T1 sequence (Q9ULK5 1-521): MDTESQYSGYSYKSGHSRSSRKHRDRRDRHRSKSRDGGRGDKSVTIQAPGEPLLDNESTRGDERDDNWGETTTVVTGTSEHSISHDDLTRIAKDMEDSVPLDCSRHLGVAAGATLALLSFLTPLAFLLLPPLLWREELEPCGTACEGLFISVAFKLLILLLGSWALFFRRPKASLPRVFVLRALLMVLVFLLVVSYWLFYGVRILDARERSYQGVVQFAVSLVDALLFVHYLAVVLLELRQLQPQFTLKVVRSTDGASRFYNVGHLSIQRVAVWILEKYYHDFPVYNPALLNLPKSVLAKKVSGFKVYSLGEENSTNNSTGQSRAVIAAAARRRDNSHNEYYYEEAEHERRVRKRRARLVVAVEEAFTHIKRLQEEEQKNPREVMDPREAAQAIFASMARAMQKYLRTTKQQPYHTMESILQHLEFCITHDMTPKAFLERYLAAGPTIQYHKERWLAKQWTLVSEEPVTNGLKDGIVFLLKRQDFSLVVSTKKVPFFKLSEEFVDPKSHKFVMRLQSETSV
In words: Co-immunoprecipitation in SUM149 cells expressing the construct. Type of assay: cell-based. The note with it: construct expressed in SUM149 cells, compared to GFP alone. An excerpt: (§2) As JNK signaling is usually activated following PCP activation, we next investigated this pathway in SUM149 cells. As previously shown, down-regulation of Vangl2 leads to a decrease in JNK signaling as shown using a time-dependent FCS stimulation of SUM149 transfected with shVangl2 compared to shLuc. No change in phosphorylation of GSK3 was evidenced in the absence of Vangl2. […] Knock-down of p62 expression in SUM149 cells phenocopied lack of Vangl2 expression. […] Next, we fused the p62 (346-388) sequence to GFP and expressed the construct in SUM149 cells. […] Indeed, this construct was able to specifically coimmunoprecipitate with Vangl2 and furthermore compete with the endogenous Vangl2-p62 interaction as shown by the decreased amount of endogenous p62 associated with Vangl2. In order to assess the contribution of the Vangl2-p62 interaction in JNK signaling, we utilized the dominant negative region of p62 and expressed this as a GFP-tagged protein.

The subject of the next assay is JNK signaling. Briefly: JNK signaling in SUM149 cells. Type of assay: cell-based. The conditions noted are these: compared to GFP alone or shLuc.
Text: as §2

Assay [2] relates to SUM149 cells. In words: Long-term cell proliferation and anchorage-independent soft agar assays. Format: cell-based. The conditions noted are these: compared to Venus ctrl or shLuc. The text has this: In order to challenge the role of Vangl2 in tumor growth, we first designed different short hairpin RNA (shRNA) to downregulate Vangl2 protein expression in SUM149, a basal breast cancer cell line, which were targeted to different sequences of the VANGL2 gene. Vangl2 expression is decreased by approximately 90% with shVangl2 (clone 3.6.9 and 3.2.12) compared shLuc controls. […] Behaviour of shLuc-SUM149 and shVangl2-SUM149 cells was next compared in long-term cell proliferation and anchorage-independent experiments using soft agar assays. Cell proliferation and in vitro tumorigenicity of SUM149 cells were decreased when expression of Vangl2 was decreased using shVangl2 clone 3.6.9. This effect was confirmed using a second shVangl2 clone 3.2.12. The tumorigenic potential of Vangl2 was next assessed in vivo by performing subcutaneous xenografts in NOG mice. Orthotopic injections of shLuc-SUM149 and shVangl2-SUM149 cells were performed and tumour growth was periodically measured.
As JNK signaling is usually activated following PCP activation, we next investigated this pathway in SUM149 cells. As previously shown, down-regulation of Vangl2 leads to a decrease in JNK signaling as shown using a time-dependent FCS stimulation of SUM149 transfected with shVangl2 compared to shLuc. No change in phosphorylation of GSK3 was evidenced in the absence of Vangl2. […]

The test system of assay [3] is SUM149 cells. In words: Cell migration assay (Boyden chamber, serum as chemo-attractant). Type of assay: cell-based. The conditions noted are these: compared to Venus ctrl or shLuc.
Assay [4] addresses T1, Vangl2-p62 interaction. Briefly: Competition of endogenous Vangl2-p62 interaction recovered by immunoprecipitation, peptide incubated in SUM149 cell extracts. The note with it: SUM149 cells / cell extracts. Type of assay: binding.

As for `CO/C1=C\C(C)=C\[C@@H](C)[C@@H](O)[C@@H](C)C/C(C)=C/C=C/[C@H](OC)[C@@H]([C@@H](C)[C@@H](O)[C@H](C)[C@@]2(O)C[C@@H](O)[C@H](C)[C@@H](C(C)C)O2)OC1=O` [Bafilomycin A1], in the assay on p62, the p62 immunolocalization entry is recorded as “accumulates”. For the same compound, the Vangl2 protein levels entry in the assay on Vangl2 is recorded as “not modified”.

On to “GFP-p62 (346-388): p62 (346-388) sequence fused to GFP, expressed in SUM149 cells”, for which, in the assay with Vangl2-p62 interaction [1], the “effect on endogenous Vangl2-p62 interaction in co-immunoprecipitation” value is recorded as “dominant-negative effect”. Further, the JNK signalling entry in the assay with JNK signaling is “decrease”.

As to “Venus-p62 (346-388): Venus-tagged p62 (346-388) expressed by lentiviral infection”, in the assay on SUM149 cells [2], the “colonies in soft agar / in vitro tumorigenicity” value was “fewer colonies”. Moreover, the cell migration entry in the assay with SUM149 cells [3] is recorded as “decrease”.

Regarding “polypeptide (346-371): polypeptide reduced in size, residues 346-371 of p62 (SEQ ID NO:2) (VDPSTGELQSLQMPESEGPSSLDPSQ; listed as Homo sapiens)”, the “disruption of the endogenous Vangl2-p62 interaction” value with Vangl2-p62 interaction [4] is recorded as “able to inhibit”.
